Experiments:
[1] = target: nicotinic receptors comprising the α7 subunit (Rattus norvegicus, UniProt Q05941); test: biochemical; type: binding
Sequence of nicotinic receptors comprising the α7 subunit (Q05941 23-502): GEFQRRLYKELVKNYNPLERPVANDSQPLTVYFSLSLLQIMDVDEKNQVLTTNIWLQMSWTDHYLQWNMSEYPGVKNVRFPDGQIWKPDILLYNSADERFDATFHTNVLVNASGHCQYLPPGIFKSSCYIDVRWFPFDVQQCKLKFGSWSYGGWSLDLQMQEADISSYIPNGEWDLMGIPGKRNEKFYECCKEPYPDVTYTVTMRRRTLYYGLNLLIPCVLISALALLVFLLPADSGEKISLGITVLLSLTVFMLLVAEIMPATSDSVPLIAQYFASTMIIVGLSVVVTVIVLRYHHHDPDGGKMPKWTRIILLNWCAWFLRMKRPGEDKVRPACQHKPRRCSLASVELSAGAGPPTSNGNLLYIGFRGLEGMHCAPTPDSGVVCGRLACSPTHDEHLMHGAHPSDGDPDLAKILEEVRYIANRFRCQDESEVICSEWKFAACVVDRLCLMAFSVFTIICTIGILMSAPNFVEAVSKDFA

SMILES | IC50 [1] [nM] | melting point [°C]
c1cnc2ccc(-c3ccc(C45CCN(CC4)C5)cn3)cc2c1 [Compound 12, 6-[5-(1-azabicyclo[2.2.1]hept-4-yl)pyridin-2-yl]quinoline] | 37.1 | –
c1cc2c(cc1-c1ccc(C34CCN(CC3)C4)cn1)OCO2 [Compound 16, 4-[6-(1,3-benzodioxol-5-yl)pyridin-3-yl]-1-azabicyclo[2.2.1]heptane] | 9.1 | 256 to 258
Fc1cccc(-c2ccc(C34CCN(CC3)C4)cn2)c1 [Compound 19, 4-[6-(3-fluorophenyl)pyridin-3-yl]-1-azabicyclo[2.2.1]heptane] | 13.8 | 88 to 90
c1cc(-c2ccc(C34CCN(CC3)C4)cn2)cc(-n2cccn2)c1 [Compound 113, 4-[6-(3-(pyrazol-1-yl)phenyl)pyridin-3-yl]-1-azabicyclo[2.2.1]heptane] | 4.7 | 114 to 116

Source: patent US8759343B2 (priority 2007, dated 2014)
